According to patent US10543212B2, “Substituted amines for treating cardiac diseases” (Cardurion Pharmaceuticals, LLC, priority 2017, dated 2020):

The compounds below were run against T1, Full-length, GST-tagged, human CaMKIIδ (Homo sapiens, UniProt Q13557) (assay: CaMKIIδ binding assay (TR-FRET with BODIPY-labeled probe ligand)). Settings: CaMKIIδ binding assay, results of Table 2.
T1 construct: Full-Length, Glutathione-S-Transferase(GST)-Tagged, Human CaMKIIδ was purchased from Carna Biosciences; purchased Carna Biosciences 02-111
T1 sequence (Q13557 1-478 isoform Q13557-12): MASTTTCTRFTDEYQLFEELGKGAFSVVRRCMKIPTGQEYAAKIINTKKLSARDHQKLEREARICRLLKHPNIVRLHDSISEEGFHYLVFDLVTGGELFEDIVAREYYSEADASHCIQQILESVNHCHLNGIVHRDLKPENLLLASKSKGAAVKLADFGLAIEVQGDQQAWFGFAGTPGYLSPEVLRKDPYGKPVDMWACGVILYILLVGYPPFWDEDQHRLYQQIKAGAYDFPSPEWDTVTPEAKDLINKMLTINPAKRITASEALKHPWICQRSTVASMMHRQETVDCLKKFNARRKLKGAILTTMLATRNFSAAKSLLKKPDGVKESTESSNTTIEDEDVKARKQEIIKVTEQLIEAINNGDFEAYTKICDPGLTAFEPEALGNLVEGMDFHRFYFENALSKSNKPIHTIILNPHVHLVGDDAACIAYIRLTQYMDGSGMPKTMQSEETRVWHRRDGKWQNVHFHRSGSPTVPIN
Procedure, shortened: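 TR-FRET probe-displacement binding: 0.5 nM GST-CaMKIIδ with 10 μg/mL calmodulin, 1 mM CaCl2, 0.21 nM Tb-anti-GST Ab and 300 nM BODIPY probe in HEPES pH 7.6 buffer. Eight-point 4-fold dilutions, 1 hr at room temperature. IC50 from logistic fit; 100% inhibition defined by 3 μM parent compound.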
Work on `COc1cc(C2CCCNC2)ccc1Nc1ncc(-c2ccc(C#N)c(O[C@@H](C)Cn3cnnn3)c2)cn1` (stereo partly drawn) [Example 472, 2-(((S)-1-(1H-tetrazol-1-yl)propan-2-yl)oxy)-4-(2-((2-methoxy-4-(piperidin-3-yl)phenyl)amino)pyrimidin-5-yl)benzonitrile] yielded an IC50 of less than 10 nM. Work on `C[C@@H](Cn1cnnn1)Oc1cc(-c2cnc(Nc3cn(C4CCN(Cc5cccn5C)CC4)nc3C(F)(F)F)nc2)ccc1Cl` [Example 566, (S)-5-(3-((1-(1H-tetrazol-1-yl)propan-2-yl)oxy)-4-chlorophenyl)-N-(1-(1-((1-methyl-1H-pyrrol-2-yl)methyl)piperidin-4-yl)-3-(trifluoromethyl)-1H-pyrazol-4-yl)pyrimidin-2-amine] yielded an IC50 of less than 10 nM. For `COCCN1CCc2cc(OC)c(Nc3ncc(-c4ccc(Cl)c(O[C@@H](C)Cn5cnnn5)c4)cn3)cc2C1` [Example 518, (S)-N-(5-(3-((1-(1H-tetrazol-1-yl)propan-2-yl)oxy)-4-chlorophenyl)pyrimidin-2-yl)-6-methoxy-2-(2-methoxyethyl)-1,2,3,4-tetrahydroisoquinolin-7-amine], the IC50 was less than 10 nM. With `COc1cc2cc[nH]c2cc1Nc1ncc(-c2ccc(Cl)c(O[C@@H](C)Cn3cnnn3)c2)cn1` [Example 496, (S)-N-(5-(3-((1-(1H-tetrazol-1-yl)propan-2-yl)oxy)-4-chlorophenyl)pyrimidin-2-yl)-5-methoxy-1H-indol-6-amine] the IC50 was 10 to 100 nM. With `C[C@@H](Cn1cnnn1)Oc1cc(-c2cnc(Nc3cc(C4CCNCC4)c(F)cc3F)nc2)ccc1Cl` [Example 575, (S)-5-(3-((1-(1H-tetrazol-1-yl)propan-2-yl)oxy)-4-chlorophenyl)-N-(2,4-difluoro-5-(piperidin-4-yl)phenyl)pyrimidin-2-amine] the IC50 was less than 10 nM. `COc1cc2c(cc1Nc1ncc(-c3ccc(Cl)c(O[C@@H](C)Cn4cnnn4)c3)cn1)CN(C(=O)C(C)(C)OC(C)=O)CC2` [Example 520, (S)-1-(7-((5-(3-((1-(1H-tetrazol-1-yl)propan-2-yl)oxy)-4-chlorophenyl)pyrimidin-2-yl)amino)-6-methoxy-3,4-dihydroisoquinolin-2(1H)-yl)-2-methyl-1-oxopropan-2-yl acetate] was tested, and the IC50 was no less than 100 nM. Compound `COc1cc2c(cc1Nc1ncc(-c3ccc(Cl)c(O[C@@H](C)Cn4cnnn4)c3)cn1)CN(C(=O)C(C)(C)O)CC2` [Example 521, (S)-1-(7-((5-(3-((1-(1H-tetrazol-1-yl)propan-2-yl)oxy)-4-chlorophenyl)pyrimidin-2-yl)amino)-6-methoxy-3,4-dihydroisoquinolin-2(1H)-yl)-2-hydroxy-2-methylpropan-1-one] has an IC50 of 10 to 100 nM.

Same assay, conditions: CaMKIIδ binding assay; activity class per Table 2
Compound `COCCN1CC2(CC(n3cc(Nc4ncc(-c5ccc(Cl)c(O[C@@H](C)Cn6cnnn6)c5)cn4)c(OCC(F)(F)F)n3)C2)C1` [Example 979, (S)-5-(3-((1-(1H-tetrazol-1-yl)propan-2-yl)oxy)-4-chlorophenyl)-N-(1-(2-(2-methoxyethyl)-2-azaspiro[3.3]heptan-6-yl)-3-(2,2,2-trifluoroethoxy)-1H-pyrazol-4-yl)pyrimidin-2-amine] has an IC50 of less than 10 nM. `C[C@@H](CN1CCCC1=O)Oc1cc(-c2cnc(Nc3cn([C@H]4CC[C@H](N5CCOCC5)CC4)nc3C(F)(F)F)nc2)ccc1C#N` [Example 900, 4-(2-((1-(trans-4-morpholinocyclohexyl)-3-(trifluoromethyl)-1H-pyrazol-4-yl)amino)pyrimidin-5-yl)-2-(((S)-1-(2-oxopyrrolidin-1-yl)propan-2-yl)oxy)benzonitrile] gave an IC50 of 10 to 100 nM. `COc1cccc(Cn2cc(Nc3ncc(-c4ccc(Cl)c(O[C@@H](C)Cn5cnnn5)c4)cn3)c(OCC(F)(F)F)n2)n1` [Example 928, (S)-5-(3-((1-(1H-tetrazol-1-yl)propan-2-yl)oxy)-4-chlorophenyl)-N-(1-((6-methoxypyridin-2-yl)methyl)-3-(2,2,2-trifluoroethoxy)-1H-pyrazol-4-yl)pyrimidin-2-amine] showed an IC50 of 10 to 100 nM. In the case of `CC(C)c1nn(C2CC3(C2)CN(C2COCCOC2)C3)cc1Nc1ncc(-c2ccc(Cl)c(O[C@@H](C)Cn3cnnn3)c2)cn1` [Example 983, (S)-N-(1-(2-(1,4-dioxepan-6-yl)-2-azaspiro[3.3]heptan-6-yl)-3-isopropyl-1H-pyrazol-4-yl)-5-(3-((1-(1H-tetrazol-1-yl)propan-2-yl)oxy)-4-chlorophenyl)pyrimidin-2-amine], the IC50 is reported as less than 10 nM.

Same assay, conditions: Table 2; CaMKIIδ binding assay, activity given as class A/B/C
`COC[C@@H](C)n1cc(Nc2ncc(-c3ccc(Cl)c(O[C@@H](C)Cn4cnnn4)c3)cn2)c(OCC(F)(F)F)n1` [Example 796, 5-(3-(((S)-1-(1H-tetrazol-1-yl)propan-2-yl)oxy)-4-chlorophenyl)-N-(1-((R)-1-methoxypropan-2-yl)-3-(2,2,2-trifluoroethoxy)-1H-pyrazol-4-yl)pyrimidin-2-amine] was tested, and the IC50 was less than 10 nM. `C[C@@H](Cn1cnnn1)Oc1cc(-c2cnc(Nc3cn(C)nc3OCC(F)(F)F)nc2)ccc1Cl` [Example 759, (S)-5-(3-((1-(1H-tetrazol-1-yl)propan-2-yl)oxy)-4-chlorophenyl)-N-(1-methyl-3-(2,2,2-trifluoroethoxy)-1H-pyrazol-4-yl)pyrimidin-2-amine] showed an IC50 of less than 10 nM. With `Cc1ccc(-c2cnc(Nc3cn([C@H]4CC[C@H](N5CCOCC5)CC4)nc3C(F)(F)F)nc2)cc1O[C@@H](C)Cn1cnnn1` [Example 810, 5-(3-(((S)-1-(1H-tetrazol-1-yl)propan-2-yl)oxy)-4-methylphenyl)-N-(1-(trans-4-morpholinocyclohexyl)-3-(trifluoromethyl)-1H-pyrazol-4-yl)pyrimidin-2-amine] the IC50 was less than 10 nM. With `C[C@H](CO)n1cc(Nc2ncc(-c3ccc(Cl)c(O[C@@H](C)Cn4cnnn4)c3)cn2)c(OCC(F)(F)F)n1` [Example 787, (R)-2-(4-((5-(3-(((S)-1-(1H-tetrazol-1-yl)propan-2-yl)oxy)-4-chlorophenyl)pyrimidin-2-yl)amino)-3-(2,2,2-trifluoroethoxy)-1H-pyrazol-1-yl)propan-1-ol] the IC50 was less than 10 nM. In the case of `C[C@@H](Cn1cnnn1)Oc1cc(-c2cnc(Nc3cn(Cc4nc5ccccc5c(=O)[nH]4)nc3C(F)(F)F)nc2)ccc1Cl` [Example 741, (S)-2-((4-((5-(3-((1-(1H-tetrazol-1-yl)propan-2-yl)oxy)-4-chlorophenyl)pyrimidin-2-yl)amino)-3-(trifluoromethyl)-1H-pyrazol-1-yl)methyl)quinazolin-4(3H)-one], the IC50 is reported as 10 to 100 nM. `C[C@@H](Cn1cnnn1)Oc1cc(-c2cnc(Nc3cn([C@H]4CC[C@H](N5CCC(F)(F)C5)CC4)nc3OC3COC3)nc2)ccc1Cl` [Example 864, 5-(3-(((S)-1-(1H-tetrazol-1-yl)propan-2-yl)oxy)-4-chlorophenyl)-N-(1-(trans-4-(3,3-difluoropyrrolidin-1-yl)cyclohexyl)-3-(oxetan-3-yloxy)-1H-pyrazol-4-yl)pyrimidin-2-amine] was tested, and the IC50 was less than 10 nM. With `C[C@@H](Cn1cnnn1)Oc1cc(-c2cnc(Nc3cn(C4CCNCC4)nc3OCC(F)F)nc2)ccc1Cl` [Example 791, (S)-5-(3-((1-(1H-tetrazol-1-yl)propan-2-yl)oxy)-4-chlorophenyl)-N-(3-(2,2-difluoroethoxy)-1-(piperidin-4-yl)-1H-pyrazol-4-yl)pyrimidin-2-amine] the IC50 was less than 10 nM.

Same assay, conditions: Table 2; activity class for CaMKIIδ
`C[C@@H](Cn1cnnn1)Oc1cc(-c2cnc(Nc3cn(CC4CN(C5COC5)C4)nc3C(F)(F)F)nc2)ccc1Cl` [Example 598, (S)-5-(3-((1-(1H-tetrazol-1-yl)propan-2-yl)oxy)-4-chlorophenyl)-N-(1-((1-(oxetan-3-yl)azetidin-3-yl)methyl)-3-(trifluoromethyl)-1H-pyrazol-4-yl)pyrimidin-2-amine] gave an IC50 of less than 10 nM. `Cc1ncc(N2CC(CN3CCOCC3)C2)cc1Nc1ncc(-c2ccc(Cl)c(O[C@@H](C)Cn3cnnn3)c2)cn1` [Example 610, (S)-5-(3-((1-(1H-tetrazol-1-yl)propan-2-yl)oxy)-4-chlorophenyl)-N-(2-methyl-5-(3-(morpholinomethyl)azetidin-1-yl)pyridin-3-yl)pyrimidin-2-amine] was tested, and the IC50 was less than 10 nM. Work on `COc1nc(N2CCN(CC(F)(F)F)CC2)ccc1Nc1ncc(-c2ccc(Cl)c(O[C@@H](C)Cn3cnnn3)c2)cn1` [Example 637, (S)-5-(3-((1-(1H-tetrazol-1-yl)propan-2-yl)oxy)-4-chlorophenyl)-N-(2-methoxy-6-(4-(2,2,2-trifluoroethyl)piperazin-1-yl)pyridin-3-yl)pyrimidin-2-amine] yielded an IC50 of no less than 100 nM. `C[C@@H](Cn1cnnn1)Oc1cc(-c2cnc(Nc3cn(CC4CCCO4)nc3C(F)(F)F)nc2)ccc1Cl` (stereo partly drawn) [Example 710, 5-(3-(((S)-1-(1H-tetrazol-1-yl)propan-2-yl)oxy)-4-chlorophenyl)-N-(1-((tetrahydrofuran-2-yl)methyl)-3-(trifluoromethyl)-1H-pyrazol-4-yl)pyrimidin-2-amine] was tested, and the IC50 was 10 to 100 nM. `C[C@@H](Cn1cnnn1)Oc1cc(-c2cnc(Nc3cn(C4CCN(C5CCOCC5)CC4)nc3OC(F)F)nc2)ccc1Cl` [Example 664, (S)-5-(3-((1-(1H-tetrazol-1-yl)propan-2-yl)oxy)-4-chlorophenyl)-N-(3-(difluoromethoxy)-1-(1-(tetrahydro-2H-pyran-4-yl)piperidin-4-yl)-1H-pyrazol-4-yl)pyrimidin-2-amine] was tested, and the IC50 was less than 10 nM. `COc1nc(N2CCN(C(=O)OC(C)(C)C)CC2)ccc1Nc1ncc(-c2ccc(Cl)c(O[C@@H](C)Cn3cnnn3)c2)cn1` [Example 613, tert-butyl (S)-4-(5-((5-(3-((1-(1H-tetrazol-1-yl)propan-2-yl)oxy)-4-chlorophenyl)pyrimidin-2-yl)amino)-6-methoxypyridin-2-yl)piperazine-1-carboxylate] was tested, and the IC50 was no less than 100 nM. `C[C@@H](Cn1cnnn1)Oc1cc(-c2cnc(Nc3cn([C@H]4CC[C@H](C(=O)O)CC4)nc3C(F)(F)F)nc2)ccc1Cl` [Example 626, trans-(S)-4-(4-((5-(3-((1-(1H-tetrazol-1-yl)propan-2-yl)oxy)-4-chlorophenyl)pyrimidin-2-yl)amino)-3-(trifluoromethyl)-1H-pyrazol-1-yl)cyclohexane-1-carboxylic acid] showed an IC50 of 10 to 100 nM.
